Experimental data from patent US20070049564A1 (Wyeth, priority 2005, published 2007).
Converted amounts (≈) assume the structure as drawn. Like-named read-outs stand apart in the source and are kept apart here.

Key:
E. faecalis GC 4555 = assay: MIC, broth microdilution; conditions: Enterococcus faecalis, GC4555, E. faecalis GC 4555
E. coli GC 4560 = assay: MIC, broth microdilution; conditions: Escherichia coli, GC4560, E. coli GC 4560
Staph. = assay: Range of MIC for Staph. strains, including MRSA; conditions: Staphylococcus aureus
S. agalactiae GC 4564 = assay: MIC, broth microdilution; conditions: Streptococcus agalactiae, GC4564, S. agalactiae GC 4564
E. coli GC 2203 = assay: MIC, broth microdilution; conditions: Escherichia coli, GC2203, E. coli GC 2203
E. coli GC 6465 = assay: MIC, broth microdilution; conditions: Escherichia coli, GC6465, E. coli GC 6465
S. aureus GC 6469 = assay: MIC, broth microdilution; conditions: Staphylococcus aureus, GC6469, S. aureus GC 6469
E. faecalis GC 2265 = assay: MIC, broth microdilution; conditions: Enterococcus faecalis, GC2265, E. faecalis GC 2265
Description: (§1) Antimicrobial susceptibility testing. The in vitro activities of the antibiotics are determined by the broth microdilution method as recommended by the National Committee for Clinical Laboratory Standards (NCCLS) (1). Mueller-Hinton II broth (MHBII)(BBL Cockeysville, Md.) is the medium employed in the testing procedures. Microtiter plates containing serial dilutions of each antimicrobial agent are inoculated with each organism to yield the appropriate density (10^5 CFU/ml) in a 100 μl final volume. The plates are incubated for 18-22 hours at 35° C. in ambient air.
(§2) Representative compounds were first incubated in mouse serum for an hour prior to the in vitro testing against a panel of selected gram-positive and gram-negative bacteria strains. All compounds were also pre-incubated in water for an hour prior to testing as control.

S. aureus GC 4536 = assay: MIC, broth microdilution; conditions: Staphylococcus aureus, GC4536, S. aureus GC 4536
E. coli GC 3226 = assay: MIC, broth microdilution; conditions: Escherichia coli, GC3226, E. coli GC 3226
E. coli = assay: Range of MIC for E. coli strains; conditions: Escherichia coli
E. coli GC 2232 = assay: MIC, broth microdilution; conditions: Escherichia coli, GC2232, E. coli GC 2232
E. faecium GC 2243 = assay: MIC, broth microdilution; conditions: Enterococcus faecium, GC2243, E. faecium GC 2243
S. pneumoniae* GC 4465 = assay: MIC, broth microdilution; conditions: Streptococcus pneumoniae, S. pneumoniae* GC 4465
E. coli GC 2231 = assay: MIC, broth microdilution; conditions: Escherichia coli, GC2231, E. coli GC 2231
S. typhimurium GC 2172 = assay: MIC, broth microdilution; conditions: Salmonella enterica, TYPHIMURIUM, S. typhimurium GC 2172
S. aureus GC 6467 = assay: MIC, broth microdilution; conditions: Staphylococcus aureus, GC6467, S. aureus GC 6467
E. coli GC 2272 = assay: MIC, broth microdilution; conditions: Escherichia coli, GC2272, E. coli GC 2272
S. aureus GC 6466 = assay: MIC, broth microdilution; conditions: Staphylococcus aureus, GC6466, S. aureus GC 6466
E. faecalis GC 2267 = assay: MIC, broth microdilution; conditions: Enterococcus faecalis, GC2267, E. faecalis GC 2267
Description: as §1, §2

[1] = MRSA, read-out: Range of MIC, Staph (Mouse Serum)
[2] = MRSA, read-out: Range of MIC, Staph (Water)
[3] = 20 h, read-out: Range of MIC, E. coli (Mouse Serum)

CCCCN(CC(=O)Nc1cc(N(C)C)c2c(c1O)C(=O)C1=C(O)[C@]3(O)C(=O)C(C(N)=O)=C(O)[C@@H](N(C)C)[C@@H]3C[C@@H]1C2)C(=O)OCOC(=O)c1ccc(F)cc1 [Example 4, ({[(2-{[(5aR,6aS,7S,10aS)-9-(aminocarbonyl)-4,7-bis(dimethylamino)-1,8,10a,11-tetrahydroxy-10,12-dioxo-5,5a,6,6a,7,10,10a,12-octahydrotetracen-2-yl]amino}-2-oxoethyl)(butyl)amino]carbonyl}oxy)methyl 4-fluorobenzoate]
MIC (E. faecalis GC 4555; Mouse Serum pre-incubation): 1 µg/mL (≈ 1.28 µM)
MIC (E. faecalis GC 4555; Water pre-incubation): 8 µg/mL (≈ 10.2 µM)
MIC (E. coli GC 4560; Mouse Serum pre-incubation): 0.25 µg/mL (≈ 0.32 µM)
MIC (E. coli GC 4560; Water pre-incubation): 8 µg/mL (≈ 10.2 µM)
MIC (Staph.; MRSA, read-out: Minimum inhibitory concentration (MIC), Staph. (mouse serum)): 0.5 to 2 µg/mL (≈ 0.64 to 2.56 µM)
MIC (Staph.; MRSA, read-out: Minimum inhibitory concentration (MIC), Staph. (water)): 2 to 16 µg/mL (≈ 2.56 to 20.5 µM)
MIC (Staph.; [1]): 0.5 to 2 µg/mL (≈ 0.64 to 2.56 µM)
MIC (Staph.; [2]): 2 to 16 µg/mL (≈ 2.56 to 20.5 µM)
MIC (Staph.; read-out: Minimum inhibitory concentration (MIC), Staph (Human Serum)): 0.5 to 4 µg/mL (≈ 0.64 to 5.12 µM)
MIC (Staph.; read-out: Minimum inhibitory concentration (MIC), Staph (Water)): 2 to 8 µg/mL (≈ 2.56 to 10.2 µM)
MIC (S. agalactiae GC 4564; Mouse Serum pre-incubation): 0.25 µg/mL (≈ 0.32 µM)
MIC (S. agalactiae GC 4564; Water pre-incubation): 0.5 µg/mL (≈ 0.64 µM)
MIC (E. coli GC 2203; Mouse Serum pre-incubation): 1 µg/mL (≈ 1.28 µM)
MIC (E. coli GC 2203; Water pre-incubation): 64 µg/mL (≈ 81.9 µM)
MIC (E. coli GC 6465; Mouse Serum pre-incubation): 4 µg/mL (≈ 5.12 µM)
MIC (E. coli GC 6465; Water pre-incubation): > 64 µg/mL
MIC (S. aureus GC 6469; Mouse Serum pre-incubation): 2 µg/mL (≈ 2.56 µM)
MIC (S. aureus GC 6469; Water pre-incubation): 16 µg/mL (≈ 20.5 µM)
MIC (E. faecalis GC 2265; Mouse Serum pre-incubation): 2 µg/mL (≈ 2.56 µM)
MIC (E. faecalis GC 2265; Water pre-incubation): 8 µg/mL (≈ 10.2 µM)
MIC (S. aureus GC 4536; Mouse Serum pre-incubation): 1 µg/mL (≈ 1.28 µM)
MIC (S. aureus GC 4536; Water pre-incubation): 4 µg/mL (≈ 5.12 µM)
MIC (E. coli GC 3226; Mouse Serum pre-incubation): 2 µg/mL (≈ 2.56 µM)
MIC (E. coli GC 3226; Water pre-incubation): 64 µg/mL (≈ 81.9 µM)
MIC (E. coli; [3]): 0.5 to 2 µg/mL (≈ 0.64 to 2.56 µM)
MIC (E. coli; read-out: Minimum inhibitory concentration (MIC), E. coli (Human Serum)): 8 to 32 µg/mL (≈ 10.2 to 40.9 µM)
MIC (E. coli; read-out: Minimum inhibitory concentration (MIC), E. coli (mouse serum)): 0.5 to 2 µg/mL (≈ 0.64 to 2.56 µM)
MIC (E. coli GC 2232; Mouse Serum pre-incubation): 1 µg/mL (≈ 1.28 µM)
MIC (E. coli GC 2232; Water pre-incubation): 64 µg/mL (≈ 81.9 µM)
MIC (E. faecium GC 2243; Mouse Serum pre-incubation): 0.5 µg/mL (≈ 0.64 µM)
MIC (E. faecium GC 2243; Water pre-incubation): 2 µg/mL (≈ 2.56 µM)
MIC (S. pneumoniae* GC 4465; Mouse Serum pre-incubation): < 0.06 µg/mL
MIC (S. pneumoniae* GC 4465; Water pre-incubation): 0.12 µg/mL (≈ 0.153 µM)
MIC (E. coli GC 2231; Mouse Serum pre-incubation): 1 µg/mL (≈ 1.28 µM)
MIC (E. coli GC 2231; Water pre-incubation): 64 µg/mL (≈ 81.9 µM)
MIC (S. typhimurium GC 2172; Mouse Serum pre-incubation): 4 µg/mL (≈ 5.12 µM)
MIC (S. typhimurium GC 2172; Water pre-incubation): > 64 µg/mL
MIC (S. aureus GC 6467; Mouse Serum pre-incubation): 2 µg/mL (≈ 2.56 µM)
MIC (S. aureus GC 6467; Water pre-incubation): 8 µg/mL (≈ 10.2 µM)
MIC (E. coli GC 2272; Mouse Serum pre-incubation): 1 µg/mL (≈ 1.28 µM)
MIC (E. coli GC 2272; Water pre-incubation): 64 µg/mL (≈ 81.9 µM)
MIC (S. aureus GC 6466; Mouse Serum pre-incubation): 0.5 µg/mL (≈ 0.64 µM)
MIC (S. aureus GC 6466; Water pre-incubation): 2 µg/mL (≈ 2.56 µM)
MIC (E. faecalis GC 2267; Mouse Serum pre-incubation): 1 µg/mL (≈ 1.28 µM)
MIC (E. faecalis GC 2267; Water pre-incubation): 8 µg/mL (≈ 10.2 µM)

CCCN(CC(=O)Nc1cc(N(C)C)c2c(c1O)C(=O)C1=C(O)[C@]3(O)C(=O)C(C(N)=O)=C(O)[C@@H](N(C)C)[C@@H]3C[C@@H]1C2)C(=O)OCOC(=O)c1ccc(C)cc1 [Example 5, ({[(2-{[(5aR,6aS,7S,10aS)-9-(aminocarbonyl)-4,7-bis(dimethylamino)-1,8,10a,11-tetrahydroxy-10,12-dioxo-5,5a,6,6a,7,10,10a,12-octahydrotetracen-2-yl]amino}-2-oxoethyl)(propyl)amino]carbonyl}oxy)methyl 4-methylbenzoate]
MIC (E. faecalis GC 4555; Mouse Serum pre-incubation): 1 µg/mL (≈ 1.31 µM)
MIC (E. faecalis GC 4555; Water pre-incubation): 4 µg/mL (≈ 5.24 µM)
MIC (E. coli GC 4560; Mouse Serum pre-incubation): 0.5 µg/mL (≈ 0.655 µM)
MIC (E. coli GC 4560; Water pre-incubation): 4 µg/mL (≈ 5.24 µM)
MIC (Staph.; [1]): 0.25 to 2 µg/mL (≈ 0.327 to 2.62 µM)
MIC (Staph.; [2]): 0.5 to 4 µg/mL (≈ 0.655 to 5.24 µM)
MIC (Staph.; MRSA, read-out: Range of MIC, Staph. (mouse serum)): 0.25 to 2 µg/mL (≈ 0.327 to 2.62 µM)
MIC (Staph.; MRSA, read-out: Range of MIC, Staph. (water)): 0.5 to 4 µg/mL (≈ 0.655 to 5.24 µM)
MIC (S. agalactiae GC 4564; Mouse Serum pre-incubation): 0.5 µg/mL (≈ 0.655 µM)
MIC (S. agalactiae GC 4564; Water pre-incubation): 0.5 µg/mL (≈ 0.655 µM)
MIC (E. coli GC 2203; Mouse Serum pre-incubation): 1 µg/mL (≈ 1.31 µM)
MIC (E. coli GC 2203; Water pre-incubation): 32 µg/mL (≈ 41.9 µM)
MIC (E. coli GC 6465; Mouse Serum pre-incubation): 8 µg/mL (≈ 10.5 µM)
MIC (E. coli GC 6465; Water pre-incubation): > 64 µg/mL
MIC (S. aureus GC 6469; Mouse Serum pre-incubation): 2 µg/mL (≈ 2.62 µM)
MIC (S. aureus GC 6469; Water pre-incubation): 4 µg/mL (≈ 5.24 µM)
MIC (E. faecalis GC 2265; Mouse Serum pre-incubation): 2 µg/mL (≈ 2.62 µM)
MIC (E. faecalis GC 2265; Water pre-incubation): 4 µg/mL (≈ 5.24 µM)
MIC (S. aureus GC 4536; Mouse Serum pre-incubation): 1 µg/mL (≈ 1.31 µM)
MIC (S. aureus GC 4536; Water pre-incubation): 1 µg/mL (≈ 1.31 µM)
MIC (E. coli GC 3226; Mouse Serum pre-incubation): 2 µg/mL (≈ 2.62 µM)
MIC (E. coli GC 3226; Water pre-incubation): 32 µg/mL (≈ 41.9 µM)
MIC (E. coli; [3]): 1 to 2 µg/mL (≈ 1.31 to 2.62 µM)
MIC (E. coli; read-out: Range of MIC, E. coli (Water)): 16 to 64 µg/mL (≈ 20.9 to 83.8 µM)
MIC (E. coli; read-out: Range of MIC, E. coli (mouse serum)): 1 to 2 µg/mL (≈ 1.31 to 2.62 µM)
MIC (E. coli; read-out: Range of MIC, E. coli (water)): 16 to 64 µg/mL (≈ 20.9 to 83.8 µM)
MIC (E. coli GC 2232; Mouse Serum pre-incubation): 2 µg/mL (≈ 2.62 µM)
MIC (E. coli GC 2232; Water pre-incubation): 32 µg/mL (≈ 41.9 µM)
MIC (E. faecium GC 2243; Mouse Serum pre-incubation): 0.5 µg/mL (≈ 0.655 µM)
MIC (E. faecium GC 2243; Water pre-incubation): 1 µg/mL (≈ 1.31 µM)
MIC (S. pneumoniae* GC 4465; Mouse Serum pre-incubation): < 0.06 µg/mL
MIC (S. pneumoniae* GC 4465; Water pre-incubation): 0.12 µg/mL (≈ 0.157 µM)
MIC (E. coli GC 2231; Mouse Serum pre-incubation): 2 µg/mL (≈ 2.62 µM)
MIC (E. coli GC 2231; Water pre-incubation): 64 µg/mL (≈ 83.8 µM)
MIC (S. typhimurium GC 2172; Mouse Serum pre-incubation): 8 µg/mL (≈ 10.5 µM)
MIC (S. typhimurium GC 2172; Water pre-incubation): > 64 µg/mL
MIC (S. aureus GC 6467; Mouse Serum pre-incubation): 2 µg/mL (≈ 2.62 µM)
MIC (S. aureus GC 6467; Water pre-incubation): 4 µg/mL (≈ 5.24 µM)
MIC (E. coli GC 2272; Mouse Serum pre-incubation): 1 µg/mL (≈ 1.31 µM)
MIC (E. coli GC 2272; Water pre-incubation): 32 µg/mL (≈ 41.9 µM)
MIC (S. aureus GC 6466; Mouse Serum pre-incubation): 0.25 µg/mL (≈ 0.327 µM)
MIC (S. aureus GC 6466; Water pre-incubation): 0.5 µg/mL (≈ 0.655 µM)
MIC (E. faecalis GC 2267; Mouse Serum pre-incubation): 2 µg/mL (≈ 2.62 µM)
MIC (E. faecalis GC 2267; Water pre-incubation): 4 µg/mL (≈ 5.24 µM)
